Assay results: patent EP1338280A1, “COMBINATION OF AMINES AND VANADIUM (IV)/(V) COMPOUNDS FOR THE TREATMENT AND/OR PREVENTION OF DIABETES MELLITUS” (priority 2000, dated 2002)

Key:
[1] = format: physicochemical
Description: (§1) Based on the finding of potent insulin-like effects of in vitro incubation of benzylamine and vanadate, the chronic administration of these compounds in diabetic rats was tested. To this end, streptozotocin-induced diabetic rats were implanted subcutaneously with osmotic minipumps releasing benzylamine (84 µmol/kg/day) or were sham-operated. […] A group of animals was also subjected to daily i.p. injection of vanadate (50 µmol/kg body wt) for two weeks.

isolated rat adipocytes = assay: Hexose transport ([3H]-2-deoxyglucose uptake) in isolated rat adipocytes; format: cell-based; design: 2-deoxyglucose uptake (stimulatory effect): dose or concentration left out as unconfirmed; conditions: for 2-deoxyglucose uptake (stimulatory effect): benzylamine or orthovanadate alone, 45 min incubation, ten-minute uptake; for glucose transport: 45 min preincubation of fat cells with increasing concentrations, 5-min 2-DG uptake
Description: Adipocyte isolation. Male Wistar rats (200-260 g) were sacrificed in a fed state, and the internal epididymal adipose tissues was dissected out and digested in Krebs-Ringer buffer as described (cf. C. Carpene et al., Biochem. PharmacoL 1990, voL 40, pp. 437-445). Adipose cells isolated is such a way were used in subsequent studies.
Hexose transport After a preincubation period of 45 min at 37 °C in vials containing 400 µl of cell suspension in KRBH with the tested products, [^3H]-2-deoxyglucose was added at a final concentration of 0.1 mM (approx. 1,300,000 d.p.m./vial). The assays were further incubated for 5 or 10 min and then stopped with 100 µl of cytochalasin B. Aliquots (200 µl) of the cell suspension were centrifuged in microtubes as described (cf. J.M. Olefsky, Biochem. J. 1978, voL 172, pp. 137-145). After centrifugation, the fat cells (upper part of the tubes) were placed in scintillation vials and the incorporated radioactivity was counted.

[2] = system: streptozotocin-induced diabetic rats; assay: Chronic administration in streptozotocin-induced diabetic rats; format: in vivo; conditions: for food and water consumption / weight of epididymal adipose tissue (adiposity): chronic treatment of diabetic rats
Description: as §1
In other studies, rats were daily injected intraperitoneally with 25 µmol/kg vanadate for the first week and with 50 µmol/kg for the second week. […] However, the combination of benzylamine and vanadate reduced hyperglycemia in diabetic rats during the second week of treatment (FIG. 7).
The chronic treatment with benzylamine and vanadate caused a substantial decrease in food and water consumption which returned to normal levels and an increase in the weight of epididymal adipose tissue. All these variations occurred in the absence of changes in body weight. The effects on adiposity or food and water intake were not detected when benzylamine or vanadate was administered alone. Furthermore the normalisation of glycemia caused by chronic treatment with both benzylamine and vanadate takes place in the absence of changes in plasma insulin concentrations.

GLUT4 = GLUT4 translocation: Western blot of GLUT4 in plasma membrane and low density microsome fractions of rat adipocytes; format: cell-based; design: abundance of GLUT4 in plasma membranes: dose or concentration left out as unconfirmed; conditions: for abundance of GLUT4 in plasma membranes: 45 minutes incubation, benzylamine or orthovanadate alone
Description: To verify whether the stimulation of glucose transport in rat adipocytes may be explained by a translocation of the insulin-sensitive glucose transporters from an internal site to the plasma membrane, as it is known for insulin, the amount of GLUT4 protein was determined in plasma membrane (PM) and low density microsome (LDM) fractions. […] These increases in GLUT4 content occurred without any significant change in the content of β1-integrin, a constitutive PM protein. Changes in the GLUT4 content of LDM mirrored, to a lesser extent, those reported in the PM (basal LDM content was decreased by 29 % and 12 % with insulin and tyramine plus orthovanadate respectively).
This study was carried out in order to determine whether the stimulation of glucose transport induced by the combination of benzylamine and orthovanadate was a consequence of alterations in the abundance of GLUT4 glucose carriers in the cell surface from adipose cells. Thus, isolated rat adipocytes were incubated in the absence or in the presence of insulin, benzylamine ([…]), orthovanadate ([…]) or the combination of benzylamine and orthovanadate, and 45 minutes later cells were homogenized and subjected to subcellular membrane fractionation. […] However, the incubation of cells with benzylamine and orthovanadate caused a 2.3-fold increase in the presence of GLUT4 in plasma membrane fractions. The effects of insulin or the combination benzylamine and orthovanadate on GLUT4 abundance in plasma membranes were specific and the plasma membrane marker β1-integrin remained unaltered after incubation with these agents. The recruitment of GLUT4 to the plasma membranes detected by insulin or the combination of benzylamine and orthovanadate was concomitant with a reduction of GLUT4 abundance in light microsomes. This was consistent with the view that benzylamine and orthovanadate translocate GLUT4 to the plasma membrane in isolated rat adipocytes.

[3] = vanadate i.p. daily 25 µmol/kg first week and 50 µmol/kg second week, benzylamine 84 µmol/kg

Q: With `NCc1ccccc1` [benzylamine] as the compound, how does the “stability in implanted osmotic minipumps” value [1] read?
A: stable for two weeks

Q: What about the “2-deoxyglucose uptake (stimulatory effect)” value (isolated rat adipocytes) of the same compound?
A: no stimulatory effect

Q: What about the “food and water consumption” value [2] of the same compound?
A: not detected

Q: And the “weight of epididymal adipose tissue (adiposity)” value [2]?
A: not detected

Q: What about the glycemia [2, 3] of the same compound?
A: remained hyperglycemic

Q: And the “abundance of GLUT4 in plasma membranes” value (GLUT4)?
A: did not alter

Q: With `OO` [hydrogen peroxide] as the compound, how does the glucose transport (isolated rat adipocytes) read?
A: dose-dependently stimulated

Q: And the activation at 1000 µM (isolated rat adipocytes; Rattus norvegicus, Adipocyte, 0.75 h, 1 mM H2O2, preincubation 45 min, n = 23, read-out: effect relative to the maximal insulin effect)?
A: 46%

Q: And the fold induction at 1000 µM (isolated rat adipocytes; Rattus norvegicus, Adipocyte, 0.75 h, 1 mM H2O2, preincubation 45 min, n = 23, read-out: factor by which basal transport is multiplied)?
A: 5 ± 0.8

Q: With `[Na+].[Na+].[Na+].[O]=[V]([O-])([O-])[O-]` [orthovanadate, sodium orthovanadate Na3VO4] as the compound, how does the “stimulation of glucose transport relative to that of 100 nM insulin (maximal insulin effect)” value (isolated rat adipocytes; 1 mM tyramine, 0.1 mM orthovanadate, n = 40) read?
A: 5 ± 1%

Q: What about the “2-deoxyglucose uptake (stimulatory effect)” value (isolated rat adipocytes) of the same compound?
A: did not stimulate

Q: And the “basal or insulin-stimulated glucose transport” value (isolated rat adipocytes; orthovanadate alone 0.1 mM)?
A: did not affect

Q: What about the “food and water consumption” value [2] of the same compound?
A: not detected

Q: What about the “weight of epididymal adipose tissue (adiposity)” value [2] of the same compound?
A: not detected

Q: And the glycemia ([2]; vanadate 50 µmol/kg body wt daily i.p. for two weeks, benzylamine 84 µmol/kg/day by osmotic minipumps)?
A: moderate reduction

Q: What about the glycemia [2, 3] of the same compound?
A: remained hyperglycemic

Q: What about the “abundance of GLUT4 in plasma membranes” value (GLUT4) of the same compound?
A: did not alter

Q: And the “amount of GLUT4 protein in the PM” value (GLUT4; Western blot, orthovanadate 0.1 mM, n = 3)?
A: 103 ± 8%

Q: For `CNC[C@H](O)c1cccc(O)c1` [phenylephrine], which glucose transport (isolated rat adipocytes) is on record?
A: not activated

Q: For `NNC(N)=O` [semicarbazide], which inhibition at 100 µM (isolated rat adipocytes; Rattus norvegicus, Adipocyte, semicarbazide 0.1 mM, read-out: inhibition of the glucose transport promoted by 1 mM tyramine plus orthovanadate) is on record?
A: 59 ± 7%

Q: And the “benzylamine-orthovanadate-stimulated 2-deoxyglucose uptake” value (isolated rat adipocytes; semicarbazide 1 mM)?
A: abolished

Q: What about the “glucose transport stimulated by 1 mM hydrogen peroxide plus 0.1 mM orthovanadate” value (isolated rat adipocytes; semicarbazide 1 mM) of the same compound?
A: unaffected

Q: For `NCCc1c[nH]c2ccc(O)cc12` [serotonin], which glucose transport (isolated rat adipocytes) is on record?
A: not activated

Q: With `NCCc1ccc(O)cc1` [tyramine] as the compound, how does the glucose transport (isolated rat adipocytes) read?
A: not activated

Q: What about the “synergism with low, ineffective dose of hydrogen peroxide on glucose transport” value (isolated rat adipocytes; hydrogen peroxide 0.01 mM, not shown) of the same compound?
A: no synergism

Q: What about the “synergism with low, ineffective dose of insulin on glucose transport” value (isolated rat adipocytes; insulin 10 pM, not shown) of the same compound?
A: no synergism
